Reference: PMC11395145, “The Archetypal Gamma-Core Motif of Antimicrobial Cys-Rich Peptides Inhibits H^+-ATPases in Target Pathogens” (International Journal of Molecular Sciences, 2024)

How the values were obtained:
[1] = test system: Candida albicans ATCC 10231; test: Microbicidal (spread-plate cell viability) assay, candidacidal activity; format: cell-based; settings: for IC50: 90 min, 37 °C, 10 mM Tris-HCl pH 7.4, 10^6 cells/mL, CFU plating, estimated, read-out: IC50 (concentration that caused 50% reduction in viable counts) against C. albicans; for effect of high external K^+ on candidacidal activity: Tris buffer with 50 mM KCl vs without
Method: (§1) First, we tested the antimicrobial activity of Kal-1 and a shorter Kal-1-derived peptide (Kdp15), both containing the complete γ-core signature of human lactoferrin, against C. albicans and P. aeruginosa. Microbicidal (cidal) activity was determined after 90 min of incubation (37 °C; pH 7.4) with a range of concentrations of each hLf-derived peptide.
(§2) Figure 1 Cell viability and membrane permeabilization assays. C. albicans or P. aeruginosa (10^6 cells/mL) were incubated (90 min, 37 °C) with each peptide/protein at the indicated concentrations. Aliquots were plated on SDA or […], and colonies were counted after 24–48 h (C. albicans) or 24 h (P. aeruginosa). At each point, samples were stained with propidium iodide (PI) and intracellular PI incorporation, indicative of membrane permeabilization, was quantified by flow cytometry. The relative cell viability (blue lines) and cellular permeabilization (red lines) were calculated as the percentage of untreated cells. Human lactoferrin (hLf) and the peptide Lfpep were used as negative and positive controls of cellular permeabilization, respectively.
(§3) Microbial susceptibility to the peptides was determined in a spread-plate assay as described previously. Briefly, two-fold serially diluted peptides were incubated (37 °C) with approximately 10^6 cells/mL in Tris buffer (10 mM Tris-HCl, pH 7.4). After 90 min of incubation with the peptides, aliquots were removed and plated in duplicate on an appropriate agar plate for each species (SDA for C. albicans, TSA for P. aeruginosa). The plates were incubated for 24–48 h at 30 °C (C. albicans) or 24 h at 37 °C (P. aeruginosa) for enumeration. The cell viability values, expressed as colony forming units (CFUs), were determined relative to incubation without added peptides and represent the mean ± standard deviation (±SD) of at least three independent determinations. For inhibition assays, the cell suspensions were preincubated (15 min at 37 °C) with the corresponding inhibitors before the addition of peptides. Water-insoluble inhibitors were prepared in DMSO, such that the final assay volume was ≤1%. Other specific experimental inhibition conditions are described where appropriate. The IC50 value is expressed as the concentration that caused 50% reduction in viable counts.

[2] = test system: Pseudomonas aeruginosa 10145 (PAO1); test: Microbicidal (spread-plate cell viability) assay, pseudomonacidal activity; format: cell-based; settings: for IC50: 90 min, 37 °C, 10 mM Tris-HCl pH 7.4, 10^6 cells/mL, CFU plating, read-out: IC50 (concentration that caused 50% reduction in viable counts) against P. aeruginosa; for effect of high external K^+ on pseudomonacidal activity: Tris buffer with 50 mM KCl vs without
Method: as §1, §2, §3

C. albicans cells [3] = test: Oxygen consumption measurement (Clark-type electrode); format: cell-based, Candida albicans; settings: 5 × 10^6 cells/mL, peptides at IC50, piericidin A 32 μM, at least 30 min, 25 °C
Method: (§4) Figure 3 Effect of cellular respiration on the microbicidal activity of hLf γ-core-containing peptides. (A,C) Oxygen consumption was measured in C. albicans and P. aeruginosa cellular suspensions in the absence (control) or the presence of kaliocin-1 (Kal-1), Kdp15, or human lactoferrin (hLf), and piericidin A (positive control). (B,D) Effect of cellular respiration on the microbicidal activity of hLf γ-core-containing peptides. Cells (10^6 cells/mL) were pre-incubated (15 min, 37 °C) with 32 μM piericidin A and incubated for 90 min at 37 °C with the peptides hLf or BM2. The cell viability was determined by means of the plate counting method. The results are the mean ± SD from duplicates of at least three independent experiments. * p < 0.05, ** p < 0.01, and *** p < 0.001 were used.
(§5) C. albicans or P. aeruginosa cells were grown to the mid-logarithmic phase, washed twice in Tris buffer, and resuspended in the same buffer, as described in [9, 10]. Briefly, cells (5 × 10^6 cells/mL) were pre-incubated for 15 min at 37 °C with the peptides (IC50). […] Oxygen consumption was measured using a Clark-type oxygen electrode (Dual digital-model 20, Rank Brothers Ltd., Cambridge, UK) in a closed jacketed chamber maintained at 25 °C. […] The viability of the cells was determined at 30 min by removing aliquots from the oxygen chambers and plating the subsequent dilutions on SDA or TSA plates.

P. aeruginosa cells [4] = test: Cell membrane permeability assay (propidium iodide, flow cytometry); format: cell-based, Pseudomonas aeruginosa; settings: 90 min, 37 °C, range of concentrations, PI 9 μM
Method: (§6) To determine whether Kal-1 and Kdp15 exert a permeabilizing effect on fungal or bacterial membranes, the cellular influx of the fluorescent nucleic-acid-binding dye propidium iodide (PI) was assessed. As PI itself cannot permeate through an intact phospholipid bilayer, only permeabilized cells take up PI, resulting in DNA intercalation and fluorescence.
(§7) Flow cytometry was used to assess the ability of peptides to permeabilize plasma membranes of cells in incorporation of the DNA intercalating dye propidium iodide (PI). C. albicans or P. aeruginosa cells (10^6 cells/mL) in Tris buffer were incubated with two-fold serially diluted peptides for 90 min at 37 °C and subsequently reincubated with PI (9 μM, final concentration) for 5 min. The suspensions were centrifuged at 1100× g for 10 min and subsequently washed with Tris buffer to remove any unbound PI. The peptide Lfpep was used to disrupt the cytoplasmic membrane (positive control). Cell fluorescence was monitored using a Cytomics FC500 Flow Cytometer (Beckman Coulter Life Sciences, Indianapolis, IN, USA). The PI fluorescence was excited at a wavelength of 488 nm and emission was registered at 610 nm. For each treatment, 20,000 events were measured. Data were acquired and analyzed using CytExpert 2.1 software. Results were expressed as the percentage of PI-positive cells with respect to the unstained cells (control). […]

P. aeruginosa cells [5] = test: Oxygen consumption measurement (Clark-type electrode); format: cell-based, Pseudomonas aeruginosa; settings: 5 × 10^6 cells/mL, peptides at IC50, piericidin A 32 μM, at least 30 min, 25 °C
Method: as §4, §5

Pma1p H^+-ATPase = Pma1p H^+-ATPase (Candida albicans, UniProt P28877); settings: starved C. albicans 10^7 cells/mL in 50 mM KCl, pre-incubated with peptide 2 × IC50, 2.5 mM glucose; control ~1.3 pH units
Method: C. albicans cells (10^7 cells/mL) in 50 mM KCl were preincubated with the peptides (2 × IC50) for 20 min. Glucose (final concentration of 2.5 mM) was then added to induce H^+ efflux via Pma1p H^+-ATPase, as indicated by the subsequent external acidification.
To measure the proton pumping activity of Pma1p H^+-ATPase, a glucose-induced acidification assay of the medium was performed as previously described [10]. Briefly, cultures of C. albicans cells were grown to the mid-log phase in SDB medium and washed twice in Tris buffer (pH 8.0). The cells were resuspended in 50 mM KCl and maintained for 18 h at 4 °C to reduce metabolic activity to a minimum (starvation conditions). To determine the external acidification, starved cells (~10^7 cells/mL) were incubated for 15 min at 30 °C in the absence or the presence of the peptides (2 × IC50). Human lactoferrin (20 μM) was used as a positive control. The initial pH of cellular suspension was adjusted with HCl to pH 6.6 (approx.) and glucose was immediately added (final concentration, 2.5 mM) to the cellular suspension. The pH of the medium was recorded at 1 min intervals for 20 min using a SevenMulti S50-K pH meter (Mettler-Toledo, Greifensee, Switzerland) with a calibrated electrode (InLab 413, Mettler-Toledo) with constant stirring. Every experiment was performed using two replicates and repeated independently three times.

C. albicans cells [6] = test: Cell membrane permeability assay (propidium iodide, flow cytometry); format: cell-based, Candida albicans; settings: 90 min, 37 °C, range of concentrations, PI 9 μM
Method: as §6, §7

C. albicans cells [7] = test: Measurement of intracellular ATP (BacTiter-Glo); format: cell-based, Candida albicans; settings: C. albicans 10^6 cells/mL, candidacidal concentration, 90 min, 37 °C; BM2 0.25 μM
Method: Total ATP was measured by using the BacTiter-Glo^TM Microbial Cell Viability Assay (Promega Co., Madison, WI, USA) according to the manufacturer’s instructions. […] Aliquots (100 μL) were incubated (90 min at 37 °C) with kaliocin-1, Kdp15, or human lactoferrin and the BM2 peptide (positive control). One hundred microliters of incubation mix was transferred into a 96-well opaque white plate, mixed with an equal volume of the BacTiter-Glo reagent, and incubated for 15 min in the dark. The reagent used a thermostable luciferase to produce luminescence in an ATP-dependent manner. The emitted luminescence was detected by using a Varioskan Flash multimode reader (Thermo Scientific, Waltham, MA, USA) with a 10 s of shaking and 1 s integration time. A calibration curve was prepared for each experiment, with ATP standards ranging from 1 to 1000 nM. For assays performed in the presence of the BM2 peptide, samples were preincubated with 0.25 μM BM2 for 30 min at 37 °C. All the tests were performed in triplicate at least four times.

C. albicans cells [8] = test: Extracellular potassium measurement (K+ efflux, ICP-OES); format: cell-based, Candida albicans; settings: 10^7 cells/mL, peptides 2 × IC50, 37 °C
Method: (§8) Figure 2 Potassium efflux induced by hLf γ-core-containing peptides. (A,D) Kinetics of K^+ efflux. C. albicans or P. aeruginosa (10^7 cells/mL) were incubated with kaliocin-1, Kdp15, human lactoferrin (hLf), and Lfpep. hLf and Lfpep were used as negative and positive controls of the membrane permeabilization, respectively. The effect of antifungal BM2 peptide was evaluated. The extracellular K^+ concentration was quantified at different times. (B,C,E) Effect of extracellular K^+ and TEA^+ on microbicidal activity. (B,E) microbicidal activity was assessed in Tris buffer in the absence or in the presence of 50 mM KCl or (C) 10 mM TEA^+. Cell viability was determined by plating aliquots of the cell suspensions. The percentage of viable cells was determined relative to that for cells incubated without peptides (control). […]
(§9) Measurements of potassium were performed using inductively coupled plasma optical emission spectrometry (ICP-OES) with a Perkin-Elmer Optima 2000 DV spectrometer. […] The percentage of cytosolic K^+ released from cell suspensions treated with Lfpep was determined in positive control assays. The total cellular K^+ content (100% value) was measured in the supernatant of cellular suspensions previously treated only with 0.5% (v/v) HClO4, heated for 1 h at 95 °C, and centrifuged to remove cell debris. […]

[9] = test system: Candida albicans ATCC 10231; settings: used in control assays; cited from earlier work
Method: as §1, with “peptide. The hLf γ-core-containing peptides were microbicidal in a concentration-dependent way (Figure 1). […] The IC50 es ...” for “peptide.”

P. aeruginosa cells [10] = test: Extracellular potassium measurement (K+ efflux, ICP-OES); format: cell-based, Pseudomonas aeruginosa; settings: 10^7 cells/mL, peptides 2 × IC50, 37 °C
Method: as §8, §9

[11] = cells pre-incubated 15 min, 37 °C with 32 μM piericidin A, then 90 min with peptide

Pma1p H^+-ATPase, sequence (P28877 whole entry): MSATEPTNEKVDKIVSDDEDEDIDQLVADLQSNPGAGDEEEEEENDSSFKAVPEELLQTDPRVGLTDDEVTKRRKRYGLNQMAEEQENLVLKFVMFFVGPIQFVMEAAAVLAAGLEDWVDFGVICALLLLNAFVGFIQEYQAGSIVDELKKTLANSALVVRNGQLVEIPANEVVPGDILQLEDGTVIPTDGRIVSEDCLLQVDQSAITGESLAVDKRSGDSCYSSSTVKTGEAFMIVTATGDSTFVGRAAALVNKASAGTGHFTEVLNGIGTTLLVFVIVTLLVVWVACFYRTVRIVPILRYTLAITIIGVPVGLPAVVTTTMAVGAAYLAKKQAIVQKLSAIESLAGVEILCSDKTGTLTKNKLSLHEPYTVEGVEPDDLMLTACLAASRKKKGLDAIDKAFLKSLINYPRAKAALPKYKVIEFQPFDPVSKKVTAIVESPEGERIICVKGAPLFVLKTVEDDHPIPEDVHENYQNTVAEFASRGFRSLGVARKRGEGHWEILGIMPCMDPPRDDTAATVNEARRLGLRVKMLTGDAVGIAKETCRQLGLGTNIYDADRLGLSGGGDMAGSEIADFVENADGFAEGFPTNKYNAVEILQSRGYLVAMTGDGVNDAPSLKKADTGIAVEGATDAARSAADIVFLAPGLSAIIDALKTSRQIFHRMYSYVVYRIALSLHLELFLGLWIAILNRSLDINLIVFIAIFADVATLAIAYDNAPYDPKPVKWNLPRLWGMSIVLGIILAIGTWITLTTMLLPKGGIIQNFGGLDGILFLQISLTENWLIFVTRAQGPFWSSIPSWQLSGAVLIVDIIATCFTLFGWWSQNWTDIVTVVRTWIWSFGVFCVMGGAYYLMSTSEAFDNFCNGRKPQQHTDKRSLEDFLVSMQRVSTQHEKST

Row | Sequence | IC50 [1] | effect of high external K^+ on candidacidal activity [1] | effect of mitochondrial ATP synthase inhibition (oligomycin A) on candidacidal activity ([1]; cells pre-incubated 15 min, 37 °C with 16 μg/mL oligomycin A) | effect of respiration inhibition (piericidin A) on candidacidal activity [1, 11] | effect of Tok1p K^+ channel block (TEA^+) on candidacidal activity ([1]; cells pre-incubated 15 min with 10 mM TEA^+) | IC50 against C. albicans relative to IC50 of native hLf (fold greater) ([1]; vs hLf IC50 3 μM) | IC50 [2] | effect of high external K^+ on pseudomonacidal activity [2] | effect of respiration inhibition (piericidin A) on pseudomonacidal activity [2, 11] | oxygen consumption of C. albicans in presence of the substance (C. albicans cells [3]) | PI fluorescent cells (plasma membrane permeabilization), P. aeruginosa (P. aeruginosa cells [4]) | oxygen consumption of P. aeruginosa in presence of the substance (P. aeruginosa cells [5]) | decrease of external pH after 20 min (glucose-induced acidification) (Pma1p H^+-ATPase) | PI fluorescent cells (plasma membrane permeabilization), C. albicans (C. albicans cells [6]) | increment in intracellular ATP (iATP) level compared to untreated control (C. albicans cells [7]) | K^+ efflux from C. albicans, in words (C. albicans cells [8]) | previously reported microbicidal concentration (organism not given) [9] | K^+ efflux from P. aeruginosa, in words (P. aeruginosa cells [10])
1 | NLCRLCAGTGENKCA [Kdp15, 15-mer kaliocin-1-derived peptide containing the complete hLf γ-core] | 100 µM | seemed to protect | less susceptible | less susceptible | less susceptible | ~33 fold | 3 µM | seemed to protect | less susceptible | equal to that of untreated (control) cells | not significantly increased | equal to that of untreated (control) cells | approximately 0.5 pH units | not significantly increased | ~ 5 fold |  |  | 
2 | TKCFQWQRNMRKVRGPPVSCIKR [Lfpep, antimicrobial hLf-derived peptide without a γ-core motif that permeabilizes bacterial and fungal cytoplasmic membranes, reference compound] | 20 µM | not modified |  |  |  |  | 0.5 µM | not modified |  |  | significant increase |  |  | significant increase |  | rapid and increased K^+ release | 50 µM | rapid and increased K^+ release
